Test results reported in US11198713B2, “Agents modulating beta-catenin functions and methods thereof” (FOG PHARMACEUTICALS, INC., priority 2017, dated 2021).

Molecular target: T1, full-length beta-catenin (Axin site) (Homo sapiens, UniProt P35222)
T1 construct: 15 nM full-length beta-catenin, 20 nM FITC labeled peptide in buffer
T1 sequence (P35222 1-781): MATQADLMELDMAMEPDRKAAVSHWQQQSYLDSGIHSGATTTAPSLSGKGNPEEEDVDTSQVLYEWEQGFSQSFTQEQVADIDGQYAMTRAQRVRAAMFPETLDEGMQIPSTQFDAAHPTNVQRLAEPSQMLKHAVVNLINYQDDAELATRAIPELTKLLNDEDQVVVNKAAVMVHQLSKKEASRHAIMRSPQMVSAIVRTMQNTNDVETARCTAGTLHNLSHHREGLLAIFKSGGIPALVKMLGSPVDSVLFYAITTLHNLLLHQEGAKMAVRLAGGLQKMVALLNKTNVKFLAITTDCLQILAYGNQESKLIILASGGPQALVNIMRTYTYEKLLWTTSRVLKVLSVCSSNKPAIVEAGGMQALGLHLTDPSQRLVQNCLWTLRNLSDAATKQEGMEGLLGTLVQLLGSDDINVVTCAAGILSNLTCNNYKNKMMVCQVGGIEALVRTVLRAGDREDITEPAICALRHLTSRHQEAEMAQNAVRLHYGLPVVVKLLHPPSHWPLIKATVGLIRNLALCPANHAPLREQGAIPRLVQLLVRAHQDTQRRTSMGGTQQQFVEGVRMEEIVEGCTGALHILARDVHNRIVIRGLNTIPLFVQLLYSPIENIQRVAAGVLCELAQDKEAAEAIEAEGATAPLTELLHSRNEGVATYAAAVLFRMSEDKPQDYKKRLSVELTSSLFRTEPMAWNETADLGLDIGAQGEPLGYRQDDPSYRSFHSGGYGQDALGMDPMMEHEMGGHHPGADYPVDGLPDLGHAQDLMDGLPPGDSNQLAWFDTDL
Assay: Competition fluorescence polarization assay (Axin site probe)
Format: binding
Settings: competition fluorescence polarization, Table 2; read-out: in vitro FP EC50
Method: FIG. 1. […] Peptide solutions were prepared in buffer (50 mM Tris pH 8.0, 250 mM NaCl, 2% glycerol, 0.5 mM EDTA, 0.02% w/v sodium azide) using a 3-fold serial dilution from 5 μM. Probe solution (15 nM full-length 13-Catenin, 20 nM FITC labeled peptide (FITC-PEG1-PQ-S5-ILD-S5-HVRRVWR (SEQ ID NO: 1) (hydrocarbon staple formed by two S5 via olefin metathesis)) in buffer) was prepared and incubated for 5 minutes, then 40 μL per well plated in a black polystyrene 384-well plate (Corning). Equal volume of the titrated peptide was added to the plate and incubated protected from light for 15 minutes prior to read. Reads were performed on a Spectramax M5 (Molecular Devices) in duplicate.
FIG. 7. […] BCL9 Competition FP assay: Peptide solutions were prepared in buffer (50 mM Tris pH 8.0, 250 mM NaCl, 2% glycerol, 0.5 mM EDTA, 0.02% w/v sodium azide) using a 3-fold serial dilution from 10 μM. Probe solution (250 nM full-length beta-catenin, 20 nM 5FAM labeled peptide in buffer) was prepared and 40 μL per well plated in a black polystyrene 384-well plate (Corning). Equal volume of the titrated peptide was added to the plate and incubated protected from light for 15 minutes prior to read. Reads were performed on a Spectramax M5 (Molecular Devices) in duplicate. Probe: Ac-[…]nLeu-Leu-2NapA-bala-bala-Lys5FAM-NH2 (SEQ ID NO: 2) (from Biochemistry, 2009, 48 (40), pp 9534-9541). Axin Competition FP assay: Peptide solutions were prepared in buffer (50 mM Tris pH 8.0, 250 mM NaCl, 2% glycerol, 0.5 mM EDTA, 0.02% w/v sodium azide) using a 3-fold serial dilution from 5 μM. Probe solution (15 nM full-length beta-catenin, 20 nM FITC labeled peptide in buffer) was prepared and incubated for 5 minutes, then 40 μL per well plated in a black polystyrene 384-well plate (Corning). Equal volume of the titrated peptide was added to the plate and incubated protected from light for 15 minutes prior to read. Reads were performed on a Spectramax M5 (Molecular Devices) in duplicate. Probe: FITC-StAx-33 from Grossmann et al. PNAS 109 17942-17947.

| EC50 [µM] | Compound |
| --- | --- |
| 0.1 to 0.5 | CC[C@H](C)[C@@H]1NC(=O)[C@H](Cc2c[nH]cn2)NC(=O)[C@H](C)NC(=O)[C@H](CC(=O)O)NC(=O)[C@H](CC(C)C)NC(=O)[C@H]([C@@H](C)CC)NC(=O)[C@](C)(NC(=O)[C@H](C)NC(C)=O)CCCCCC=CCN2CC(C(=O)N[C@@H](CCCNC(=N)N)C(=O)N[C@H](C(=O)N[C@@H](Cc3c[nH]c4ccccc34)C(N)=O)C(C)C)(C2)NC1=O (single isomer, unassigned) [FP0516a Isomer 1, Ac-A-R7-I-L-D-A-H-I-MA-R-V-W-NH2] |
| 0.5 to 5 | CC[C@H](C)[C@@H]1NC(=O)[C@H](Cc2c[nH]cn2)NC(=O)[C@H](C)NC(=O)[C@H](CC(=O)O)NC(=O)[C@H](CC(C)C)NC(=O)[C@H]([C@@H](C)CC)NC(=O)[C@](C)(NC(=O)[C@H](C)NC(C)=O)CCCCCC=CCN2CC(C(=O)N[C@@H](CCCNC(=N)N)C(=O)N[C@H](C(=O)N[C@@H](Cc3c[nH]c4ccccc34)C(N)=O)C(C)C)(C2)NC1=O (single isomer, unassigned) [FP0516a Isomer 2, Ac-A-R7-I-L-D-A-H-I-MA-R-V-W-NH2] |
| > 5 | CC[C@H](C)[C@@H]1NC(=O)[C@H](Cc2ccccn2)NC(=O)[C@H](C)NC(=O)[C@H](CC(=O)O)NC(=O)[C@H](CC(C)C)NC(=O)[C@H]([C@@H](C)CC)NC(=O)[C@](C)(NC(=O)[C@H](C)NC(C)=O)CCCCCCC=CCOC(=O)N2CC[C@@](C(=O)N[C@@H](C)C(=O)N[C@H](C(=O)N[C@@H](Cc3c[nH]c4ccccc34)C(N)=O)C(C)C)(C2)NC1=O (single isomer, unassigned) [FP0554c Isomer 1, Ac-A-R8-I-L-D-A-2pyr-I-MB-A-V-W-NH2] |
| > 5 | CC[C@H](C)[C@@H]1NC(=O)[C@H](Cc2ccccn2)NC(=O)[C@H](C)NC(=O)[C@H](CC(=O)O)NC(=O)[C@H](CC(C)C)NC(=O)[C@H]([C@@H](C)CC)NC(=O)[C@](C)(NC(=O)[C@H](C)NC(C)=O)CCCCCCC=CCOC(=O)N2CC[C@@](C(=O)N[C@@H](C)C(=O)N[C@H](C(=O)N[C@@H](Cc3c[nH]c4ccccc34)C(N)=O)C(C)C)(C2)NC1=O (single isomer, unassigned) [FP0554c Isomer 2, Ac-A-R8-I-L-D-A-2pyr-I-MB-A-V-W-NH2] |
| > 5 | CC[C@H](C)[C@@H]1NC(=O)[C@H](Cc2ccccn2)NC(=O)[C@H](C)NC(=O)[C@H](CC(=O)O)NC(=O)[C@H](CC(C)C)NC(=O)[C@H]([C@@H](C)CC)NC(=O)[C@](C)(NC(=O)[C@H](C)NC(C)=O)CCCCCCC=CCOC(=O)N2CC[C@@](C(=O)N[C@@H](Cc3ccccc3)C(=O)N[C@H](C(=O)N[C@@H](Cc3c[nH]c4ccccc34)C(N)=O)C(C)C)(C2)NC1=O (single isomer, unassigned) [FP0555c Isomer 1, Ac-A-R8-I-L-D-A-2pyr-I-MB-F-V-W-NH2] |
| > 5 | CC[C@H](C)[C@@H]1NC(=O)[C@H](Cc2ccccn2)NC(=O)[C@H](C)NC(=O)[C@H](CC(=O)O)NC(=O)[C@H](CC(C)C)NC(=O)[C@H]([C@@H](C)CC)NC(=O)[C@](C)(NC(=O)[C@H](C)NC(C)=O)CCCCCCC=CCOC(=O)N2CC[C@@](C(=O)N[C@@H](Cc3ccccc3)C(=O)N[C@H](C(=O)N[C@@H](Cc3c[nH]c4ccccc34)C(N)=O)C(C)C)(C2)NC1=O (single isomer, unassigned) [FP0555c Isomer 2, Ac-A-R8-I-L-D-A-2pyr-I-MB-F-V-W-NH2] |
| > 5 | CC[C@H](C)[C@@H]1NC(=O)[C@H](Cc2ccccn2)NC(=O)[C@H](C)NC(=O)[C@H](CC(=O)O)NC(=O)[C@H](CC(C)C)NC(=O)[C@H]([C@@H](C)CC)NC(=O)[C@](C)(NC(=O)[C@H](C)NC(C)=O)CCCCCCC=CCOC(=O)N2CC[C@@](C(=O)N[C@H](C(=O)N[C@H](C(=O)N[C@@H](Cc3c[nH]c4ccccc34)C(N)=O)C(C)C)[C@@H](C)CC)(C2)NC1=O (single isomer, unassigned) [FP0556c Isomer 1, Ac-A-R8-I-L-D-A-2pyr-I-MB-I-V-W-NH2] |
| > 5 | CC[C@H](C)[C@@H]1NC(=O)[C@H](Cc2ccccn2)NC(=O)[C@H](C)NC(=O)[C@H](CC(=O)O)NC(=O)[C@H](CC(C)C)NC(=O)[C@H]([C@@H](C)CC)NC(=O)[C@](C)(NC(=O)[C@H](C)NC(C)=O)CCCCCCC=CCOC(=O)N2CC[C@@](C(=O)N[C@H](C(=O)N[C@H](C(=O)N[C@@H](Cc3c[nH]c4ccccc34)C(N)=O)C(C)C)[C@@H](C)CC)(C2)NC1=O (single isomer, unassigned) [FP0556c Isomer 2, Ac-A-R8-I-L-D-A-2pyr-I-MB-I-V-W-NH2] |
| > 5 | CC[C@H](C)[C@@H]1NC(=O)[C@H](Cc2ccccn2)NC(=O)[C@H](C)NC(=O)[C@H](CC(=O)O)NC(=O)[C@H](CC(C)C)NC(=O)[C@H]([C@@H](C)CC)NC(=O)[C@](C)(NC(=O)[C@H](C)NC(C)=O)CCCCCCC=CCOC(=O)N2CC[C@@](C(=O)N[C@@H](CC(C)C)C(=O)N[C@H](C(=O)N[C@@H](Cc3c[nH]c4ccccc34)C(N)=O)C(C)C)(C2)NC1=O (single isomer, unassigned) [FP0557c Isomer 1, Ac-A-R8-I-L-D-A-2pyr-I-MB-L-V-W-NH2] |
| > 5 | CC[C@H](C)[C@@H]1NC(=O)[C@H](Cc2ccccn2)NC(=O)[C@H](C)NC(=O)[C@H](CC(=O)O)NC(=O)[C@H](CC(C)C)NC(=O)[C@H]([C@@H](C)CC)NC(=O)[C@](C)(NC(=O)[C@H](C)NC(C)=O)CCCCCCC=CCOC(=O)N2CC[C@@](C(=O)N[C@@H](CC(C)C)C(=O)N[C@H](C(=O)N[C@@H](Cc3c[nH]c4ccccc34)C(N)=O)C(C)C)(C2)NC1=O (single isomer, unassigned) [FP0557c Isomer 2, Ac-A-R8-I-L-D-A-2pyr-I-MB-L-V-W-NH2] |
| > 5 | CC[C@H](C)[C@@H]1NC(=O)[C@H](Cc2ccccn2)NC(=O)[C@H](C)NC(=O)[C@H](CC(=O)O)NC(=O)[C@H](CC(C)C)NC(=O)[C@H]([C@@H](C)CC)NC(=O)[C@](C)(NC(=O)[C@H](C)NC(C)=O)CCCCCCC=CCOC(=O)N2CC[C@@](C(=O)N[C@@H](CC(N)=O)C(=O)N[C@H](C(=O)N[C@@H](Cc3c[nH]c4ccccc34)C(N)=O)C(C)C)(C2)NC1=O (single isomer, unassigned) [FP0558c Isomer 1, Ac-A-R8-I-L-D-A-2pyr-I-MB-N-V-W-NH2] |
| > 5 | CC[C@H](C)[C@@H]1NC(=O)[C@H](Cc2ccccn2)NC(=O)[C@H](C)NC(=O)[C@H](CC(=O)O)NC(=O)[C@H](CC(C)C)NC(=O)[C@H]([C@@H](C)CC)NC(=O)[C@](C)(NC(=O)[C@H](C)NC(C)=O)CCCCCCC=CCOC(=O)N2CC[C@@](C(=O)N[C@@H](CC(N)=O)C(=O)N[C@H](C(=O)N[C@@H](Cc3c[nH]c4ccccc34)C(N)=O)C(C)C)(C2)NC1=O (single isomer, unassigned) [FP0558c Isomer 2, Ac-A-R8-I-L-D-A-2pyr-I-MB-N-V-W-NH2] |
| > 5 | CC[C@H](C)[C@@H]1NC(=O)[C@H](Cc2ccccn2)NC(=O)[C@H](C)NC(=O)[C@H](CC(=O)O)NC(=O)[C@H](CC(C)C)NC(=O)[C@H]([C@@H](C)CC)NC(=O)[C@](C)(NC(=O)[C@H](C)NC(C)=O)CCCCCCC=CCOC(=O)N2CC[C@@](C(=O)N[C@@H](CCC(N)=O)C(=O)N[C@H](C(=O)N[C@@H](Cc3c[nH]c4ccccc34)C(N)=O)C(C)C)(C2)NC1=O (single isomer, unassigned) [FP0559c Isomer 1, Ac-A-R8-I-L-D-A-2pyr-I-MB-Q-V-W-NH2] |
